Source: ChEMBL document CHEMBL1157539, “Thousands of chemical starting points for antimalarial lead identification” (Nature, 2010)

What follows are compounds tested on Plasmodium falciparum (assay: GSK_TCMDC: Inhibition of Plasmodium falciparum 3D7 in whole erythrocytes, using parasite LDH activity as an index of growth.). Details: Plasmodium falciparum, 3D7.
Assay type: functional, organism-based

| Structure (SMILES) | XC50 [nM] |
| --- | --- |
| COc1ccc2c(N/N=C/c3cccc([N+](=O)[O-])c3)cc(C)nc2c1 | 557 |
| O=C(Nc1nc(-c2ccccn2)cc2ccccc12)c1cccc(Cl)c1 | 754 |
| Clc1ccc2c(Cl)c(CNCCCNc3nc4ccccc4[nH]3)[nH]c2c1 | 219 |
| CCCCN(C(=O)c1ccccc1C)c1nnc(-c2ccccc2C)s1 | 927 |
| O=C(NC1CC1)c1cnc(N2CCN(Cc3ccc(Cl)cc3)CC2)c(Cl)c1 | 847 |
| COc1ccc2nccc([C@@H](O)CN3CCC(NC(=O)c4ccc(Cl)c(OC)c4)CC3)c2c1 | 792 |
| CCc1c(C(=O)NC2CCC(N3CCC(c4ccccc4OC)CC3)CC2)[nH]c2ccc(Br)cc12 (stereo not given) | 1120 |
| CC(C)(C)c1ccc(CN2CCC(CNC(=O)c3cc(-c4cccc(C(F)(F)F)c4)cs3)C2)cc1 (stereo not given) | 1030 |
| CCc1ccc(C2=Nn3c(nnc3-c3cccs3)SC2)cc1 | 1290 |
| N=C(N)c1cccc(OCCCOc2cccc(NC(=O)Nc3ccc([N+](=O)[O-])cc3)c2)c1 | 862 |
| CN(C)CCN(C)Cc1ccc(-c2ccc3c(Nc4ccc(Oc5ccccn5)cc4)ccnc3c2)o1 | 424 |
| OC(c1cc(C(F)(F)F)nc2c(F)cccc12)C1CCCCN1 (stereo not given) | 782 |
| O=C(NCCc1ccccc1)N(Cc1cccc(-c2ccc(CNC3CCCC3)cc2)c1)C1CCN(Cc2ccccc2)CC1 | 404 |
| CCNc1cc(CC)nc(Nc2ccc(C)cc2)n1 | 848 |
| N=C(N)NC(=O)Nc1cc(F)c(Cl)c(Cl)c1 | 505 |
| C[C@@H](N/C(=N\c1ccccc1Cl)Nc1ccc(C#N)cc1O)c1ccc(Br)cc1 | 753 |
| Cc1ccc(C(=O)c2oc3ccc4c(C)cc(=O)oc4c3c2C)cc1 | 1030 |
| Oc1ccc2nc(Nc3ccccc3)nc(NCCc3ccccc3)c2c1 | 152 |
| CN1CCN(CCCN(Cc2csc(-c3ccc(CNCc4ccccc4)cc3)n2)C(=O)Nc2cccc(Cl)c2)CC1 | 789 |
| COCCNCc1ccc(-c2ccc(CNC3CCN(Cc4ccccc4)CC3)cc2)cc1 | 669 |
| CN1CCCN(Cc2cccc(-c3cccc(NC(=O)c4ccc(C#N)cc4)c3)c2)CC1 | 1140 |
| CCn1c(SC)nnc1C1CCCN(CC(=O)Nc2nc3ccc(OC)cc3s2)C1 (stereo not given) | 746 |
| Cc1ccc(NC(=O)c2nc(N3CCN(c4ccncc4)CC3)ccc2Cl)cc1F | 812 |
| CC(C)[C@H](NC(=O)c1ccc(O)c(-c2ccc(Cl)c(Cl)c2)c1)C(=O)NC1CCCCCC1 | 224 |

| Structure (SMILES) | XC50 [nM] |
| --- | --- |
| COc1ccc2nccc([C@H](O)CN3CCC(NCc4cc(C)c5c(c4)OCCO5)CC3)c2n1 | 902 |
| CC(C)NCc1ccc(-c2cccc(NC(=O)c3cccc(Cl)c3)c2)cc1 | 728 |
| O=C(NC1CCC1)C1CCN(C(c2ccccc2)c2cc(F)cc(F)c2)CC1 (stereo not given) | 797 |
| O=[N+]([O-])c1cccc(CNC2CCN(Cc3ccc(-c4ccccc4)cc3)CC2)c1 | 231 |
| NC(=O)c1ccsc1NC(=O)CNC(c1ccc(F)cc1)c1cccs1 (stereo not given) | 947 |
| COc1ccc2nccc([C@@H](O)CN3CCC(NC(=O)c4cc5c(Cl)cc(Cl)cc5[nH]4)CC3)c2c1 | 233 |
| COc1cc(N(Cc2ccccc2C)S(=O)(=O)Cc2ccccc2[N+](=O)[O-])c(OC)cc1Cl | 1010 |
| O=C(Cc1ccccc1)NC(c1ccc(Cl)cc1)c1ccc2cccnc2c1O (stereo not given) | 861 |
| CN(C)CCN(C)Cc1ccc(-c2cccc(NC(=O)c3ccc(Cl)cc3)c2)cc1 | 558 |
| Cc1[nH]c(C)c(-c2ccc(OCCOc3ccc(C(F)(F)F)cn3)cc2)c(=O)c1Br | 138 |
| O=C(COc1ccc(Cl)cc1)N1CCC(CN2CCC(c3c[nH]c4ccccc34)CC2)CC1 | 1100 |
| O=C(NCCN1CCCCC1)c1cc2cc(-c3ccccc3)ccc2n1S(=O)(=O)c1ccccc1 | 1120 |
| Cc1nc(-c2cccc(Nc3nccc(NCC(O)c4ccccc4C(F)(F)F)n3)c2)cs1 (stereo not given) | 834 |
| COc1ccc(CCNc2nc(NCCc3cnc[nH]3)nc(NCc3cccc4ccccc34)n2)cc1OC | 537 |
| O=C(O)c1cc(OCC(O)COc2ccc(O)c(C(=O)O)c2)ccc1O | 227 |
| c1ccc2c(NCCc3c[nH]cn3)c3ccccc3nc2c1 | 1040 |
| CC(=O)Nc1ncc(C(=O)Nc2cccc(-c3cccc(-c4nc5cccc(C)c5[nH]4)c3)c2)s1 | 354 |
| CNCCNCc1ccc(-c2cccc(-c3nc4cc(C(F)(F)F)ccc4[nH]3)c2)cc1 | 628 |
| c1ccc(N2CCN(c3cc(-c4cccnc4)nc(-c4ccncc4)n3)CC2)nc1 | 757 |
| Cc1ccc(Cn2ncc(N3CCNCC3)c(Cl)c2=O)cc1NC(=O)Nc1ccc(-c2ccccc2)cc1 | 1120 |
| CC(C)(C)OC(=O)N(Cc1cc(-n2nnnc2C(F)(F)F)ccc1O)[C@H]1CCCN(C(=O)OC(C)(C)C)[C@H]1c1ccccc1 | 719 |
| COc1ccc(-c2ccc(NC(=O)c3cccc(C#N)c3)cc2)cc1CN(C)C | 735 |
| COc1ccc(C2CC(c3cccs3)=NN2C(=O)CNc2ccccc2F)cc1OC (stereo not given) | 631 |
| Cc1ccccc1C1CCN(C2CCC(NC(=O)/C=C/c3cc(F)ccc3C(F)(F)F)CC2)CC1 (stereo not given) | 953 |

| Structure (SMILES) | XC50 [nM] |
| --- | --- |
| CC(C)(C)c1ccc(CNC(=O)COc2ccc(-c3nnc(-c4cccc([N+](=O)[O-])c4)o3)cc2[N+](=O)[O-])cc1 | 926 |
| COc1ccc2nccc([C@@H](O)CN3CCC(NCc4nc5cc(F)ccc5o4)CC3)c2c1 | 149 |
| CCNC(=O)Nc1ccc(-c2cccc(-c3nc4cccc(C)c4[nH]3)c2)cc1 | 756 |
| C[C@@H](CC1CCCCC1)OC(=O)N(C)[C@H]1CCN(C#N)C1 | 219 |
| CC(C)CNC(=O)c1ccnc(-c2ccc(CNCCCc3ccccc3)cc2)c1 | 728 |
| CCCCNC[C@@H](O)[C@H](Cc1ccccc1)NC(=O)c1cc(NCC)cc(N2CCCCS2(=O)=O)c1 | 398 |
| Cc1cccc(C(=O)Nc2ccnc(N(C)C3CCN(CC(C)C)CC3)c2)c1 | 869 |
| Fc1cccc(C=NN=c2cc[nH]c3ccc(C(F)(F)F)cc23)c1 | 733 |
| N#Cc1cccc(C(=O)Nc2ccc(-c3cccc(CN4CCCC4)c3)cc2)c1 | 712 |
| O=C(O)c1ccc(OCOCOc2ccc(C(=O)O)c(O)c2)cc1O | 190 |
| O=C(CCNc1ccnc(NCCc2ccc(F)cc2)n1)Nc1ccccc1 | 829 |
| Cc1nc2ccc(Nc3nccc(-c4c(-c5cccc(NC(=O)c6c(F)cccc6F)c5)nn5ccccc45)n3)cc2nc1C | 1070 |
| O=C(NCCCCN1CCC(c2ccc3c(c2OCCO)CCCC3)CC1)c1sc(-c2ccc(C(F)(F)F)cc2)nc1CO | 1050 |
| CCOc1cc(O)c(-c2nc(N)ncc2-c2ccc3c(c2)OCCO3)cc1CC | 729 |
| Cc1cc(C(=O)NC2CCN(Cc3ccccc3)CC2)ccc1-c1nc2cc(Cl)c(Cl)cc2[nH]1 | 959 |
| COc1c(C2CCN(CCCCNC(=O)c3ccc(-c4ccc(Cl)cc4)cn3)CC2)ccc2c1CCCC2 | 912 |
| COc1ccccc1-c1cccc2c(NC(=O)Nc3ccc4nccc(N5CCN(C)CC5)c4c3)ccnc12 | 1000 |
| Cc1ccc(C)c(S(=O)(=O)Nc2ccc(Br)cc2C(=O)Nc2cccc(C(F)(F)F)c2)c1 | 1210 |
| NS(=O)(=O)c1ccc(CNC(=O)c2cnc3c(O)cccc3c2Nc2cccc(NC(=O)c3ccc(Cl)c(Cl)c3)c2)cc1 | 1720 |
| O=C(Nc1cccc(Cl)c1)N[C@H]1CCN(Cc2ccc(OCCCN3CCCCC3)cc2)C1 | 729 |
| NCC1CCCN1Cc1ccc(-c2ccc(-c3nc4cc(C(F)(F)F)ccc4[nH]3)s2)cc1 (stereo not given) | 794 |
| COc1cc(CNCCCCCCNCc2cc(OC)c3ccccc3c2OC)c(OC)c2ccccc12 | 700 |
| N=C1NC(=O)C(=Cc2cn(-c3ccccc3)nc2-c2cccc(S(=O)(=O)N3CCCC3)c2)S1 | 1140 |
| O=C(Nc1cc(C(F)(F)F)cc(C(F)(F)F)c1)NC(CCCN1CCC2(CC1)OCc1ccccc12)c1ccc(Cl)c(Cl)c1 (stereo not given) | 820 |

| Structure (SMILES) | XC50 [nM] |
| --- | --- |
| Fc1ccc2[nH]c(-c3ccc(-c4ccc(CN5CCCCC5)cc4)cc3)nc2c1 | 349 |
| O=C(/C=C/c1ccc(Cl)c(Cl)c1)N1CCC(CN2CCC(c3c[nH]c4cc5c(cc34)OCO5)CC2)CC1 | 680 |
| FC(F)(F)c1cccc(N=C(S)NN=Cc2ccccn2)c1 | 346 |
| O=c1cc(N2CCNCC2)c(Cl)nn1Cc1ccc(NS(=O)(=O)c2ccc(Oc3ccccc3)cc2)cc1 | 574 |
| COc1ccccc1OCCN(CC(O)COc1cccc2[nH]c3ccccc3c12)CC(O)COc1cccc2[nH]c3ccccc3c12 (stereo not given) | 636 |
| O=C(NC1CCN(CCN2CCC(c3cn(CCO)c4ccccc34)CC2)CC1)c1ccc(-c2ccc(C(F)(F)F)cc2)cc1 | 740 |
| O=C(Nc1ccc(C(=O)Oc2ccc3ccccc3c2)cc1)N[C@@H](Cc1ccc(O)cc1)C(=O)NC1CCN(Cc2ccc(O)cc2)C1 (stereo not given in full) | 1060 |
| CCCC(=O)Nc1ccc(OCCCCN(CC(C)(C)C)c2ccc(C#N)c(C(F)(F)F)c2)cc1 | 1350 |
| O=C(NC1CCC(CN2CCC(c3c[nH]c4ccccc34)CC2)CC1)c1cc(-c2ccc(F)cc2F)ccc1O (stereo not given) | 356 |
| O=C(/C=C/c1ccc(Cl)c(Cl)c1)NCC[C@@H]1C[C@H]1CCN1CCC(c2c[nH]c3ccccc23)CC1 | 794 |
| COc1cc(Cc2cnc(N)nc2N)c2c(c1OC)OC(C)C=C2 (stereo not given) | 1250 |
| CCn1cc2c3c(cc(C(=O)N[C@@H](Cc4ccccc4)[C@H](O)CNCc4cccc(OC)c4)cc31)N(C)S(=O)(=O)CC2 | 667 |
| CN(C)Cc1c(O)ccc2[nH]c(-c3ccc(F)cc3F)nc12 | 1300 |
| CCOc1cc(C(=O)Nc2cccnc2)cc(Br)c1OCCC(C)C | 1080 |
| CC(=O)N[C@H](C(=O)Nc1ccc(-c2cccc(-c3nc4cccc(C)c4[nH]3)c2)cc1)C(C)C | 1090 |
| Cc1cc(N[C@@H](Cc2ccccc2)C(=O)NC2CCCC2)nc(NCCc2cccs2)n1 | 1400 |
| c1cc2c3c(cccc3c1)NC(CCCCCCCCC1=Nc3cccc4cccc(c34)N1)=N2 | 826 |
| COc1ccc2nccc([C@@H](O)CN3CCC(NCc4ccc5nnsc5c4)CC3)c2c1 | 714 |
| Cc1ncccc1C(=O)Nc1cccc(-c2cccc(-c3nc4cc(C(F)(F)F)ccc4[nH]3)c2)c1 | 602 |
| N#Cc1ccc(-c2ccc(C(=O)NCCCCN3CCC(c4cn(CCCO)c5ccccc45)CC3)cc2)cc1 | 750 |
| Cc1nc(-c2cccc(C(=O)NC3CCC(CCN4CCc5ccc(-c6cccnc6)cc5CC4)CC3)c2)no1 (stereo not given) | 762 |
| CC1CCN(c2nc(C(=O)Nc3ccc(F)cc3C(F)(F)F)c(C(C)C)s2)CC1 | 229 |
| CCOC(=O)c1cnc2c(C(F)(F)F)cccc2c1Nc1ccc(O)cc1 | 632 |
